The subject of one experiment is MV4; 11 cells. As to the kind of experiment: inhibiting the growth of MV4; 11 cells. The format is cell-based. To be noted: Homo sapiens.
Another experiment has as its target T1, hClpP (Homo sapiens, UniProt Q16740).
T1 construct: made in house
In words: activating ClpP hydrolysis of FITC-casein (fluorescence kinetic detection). The format is biochemical. Particulars: hClpP 1 μM, FITC-Casein 4 μM, 37° C. Here is the method:
The specific procedures were as follows:
Test compounds were each prepared into a 100 mM stock solution in DMSO and stored. and 1 μL of stock solution of each of the compounds was taken and diluted to 10 mM by adding 9 μL of DMSO for later use.
The compounds of formula I of the present invention were each diluted at concentrations of 200 μM, 50 μM, 10 μM, 2 μM, 500 nM, 100 nM, 20 nM, and 2 nM in an assay buffer. 50 μL of each of the compounds at different concentrations was added to each well, with 2 replicate wells.
The protein was diluted to 4 μM in an assay buffer. 25 μL of protein was added to each well, and incubated at 37° C. for 30 min. The final concentration was 1 μM.
25 μL of FITC-Casein was added to each well. The final concentration was 4 μM. The mixture was immediately loaded on the machine for detection.
FITC-Casein and FITC-Casein+ClpP were used as negative controls.
The detection temperature was 37° C. The plate was shaken for 3 s. […] Kinetic parameters were set, and scanning was performed once every 1 min for 15 min.

T1 sequence (Q16740 57-277): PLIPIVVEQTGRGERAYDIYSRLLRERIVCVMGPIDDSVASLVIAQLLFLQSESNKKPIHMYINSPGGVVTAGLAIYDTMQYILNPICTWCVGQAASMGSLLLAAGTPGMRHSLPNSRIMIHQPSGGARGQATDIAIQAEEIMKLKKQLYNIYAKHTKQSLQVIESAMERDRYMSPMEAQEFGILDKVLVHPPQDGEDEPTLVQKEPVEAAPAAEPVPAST

For `Cn1ccc(CN2CCc3c(c(=O)n(Cc4ccccc4)c4ncccc34)C2)n1` [Compound I-24, 6-benzyl-3-((1-methyl-1H-pyrazol-3-yl)methyl)-2,3,4,6-tetrahydropyrido[3,4-c][1,8]naphthyridine-5-(1H)-one], in the experiment on MV4; 11 cells, the half-inhibitory concentration (IC50) (usually the concentration that gives 50% inhibition) lay within 1000 to 10000 nM. For the same compound, the EC50 (in general, the concentration needed to bring the measured effect to its halfway point) on hClpP was 10000 to 100000 nM.
For `O=c1c2c(n3cncc3n1Cc1ccc(Cl)cc1)CCN(Cc1cccc(Cl)c1)C2` [Compound I-166, 7-(3-chlorobenzyl)-4-(4-chlorobenzyl)-6,7,8,9-tetrahydroimidazo[1,5-a]pyrido[3,4-e]pyrimidine-5(4H)-one], the IC50 in the experiment with MV4; 11 cells was 1000 to 10000 nM. On hClpP, this compound gave a half-maximal effective concentration (EC50) of 1000 to 10000 nM.
`COc1ccc(Cn2c(=O)c3c(n4ccnc24)CCN(Cc2cccc(F)c2)C3)cc1` [Compound I-143, 7-(3-fluorobenzyl)-4-(4-methoxybenzyl)-6,7,8,9-tetrahydroimidazo[1,2-a]pyrido[3,4-e]pyrimidine-5(4H)-one]: in the experiment on MV4; 11 cells, the IC50 is less than 1000 nM. Also, at hClpP, the EC50 was less than 1000 nM.
Turning to `Cn1nccc1CN1CCc2c(c(=O)n(Cc3ccccc3)c3ncccc23)C1` [Compound I-25, 6-benzyl-3-((1-methyl-1H-pyrazol-5-yl)methyl)-2,3,4,6-tetrahydropyrido[3,4-c][1,8]naphthyridine-5-(1H)-one], the IC50 in the experiment on MV4; 11 cells was in the range of 1000 to 10000 nM. Moreover, the EC50 on hClpP was 10000 to 100000 nM.
In turn, `O=c1c2c(n3cccc3n1Cc1ccc(Cl)cc1)CCN(Cc1cccc(Cl)c1)C2` [Compound I-169, 3-(3-chlorobenzyl)-6-(4-chlorobenzyl)-1,2,3,4-tetrahydropyrido[3,4-e]pyrrolo[1,2-a]pyrimidine-5(6H)-one] registered a 50% inhibitory concentration (IC50) in the experiment on MV4; 11 cells of less than 1000 nM. The same compound displayed an EC50 on hClpP of less than 1000 nM.
Take `O=c1c2c(c3cccnc3n1Cc1ccc(Br)cc1)CCN(Cc1cccc(F)c1)C2` [Compound I-77, 3-(3-fluorobenzyl)-6-(4-bromobenzyl)-2,3,4,6-tetrahydropyrido[3,4-c][1,8]naphthyridine-5-(1H)-one]: in the experiment on MV4; 11 cells, the half-inhibitory concentration (IC50) is less than 1000 nM. Also, on hClpP, the concentration giving a half-maximal response (EC50) was less than 1000 nM.
Take `CCc1cccc(CN2CCc3c(c(=O)n(Cc4ccccc4)c4ncccc34)C2)c1` [Compound I-16, 6-benzyl-3-(3-ethylbenzyl)-2,3,4,6-tetrahydropyrido[3,4-c][1,8]naphthyridine-5-(1H)-one]: in the experiment on MV4; 11 cells, the 50% inhibitory concentration (IC50) is less than 1000 nM. This compound displayed an EC50 on hClpP of 1000 to 10000 nM.
In turn, `N#Cc1cccc(CN2CCc3c(c(=O)n(Cc4ccccc4)c4ncccc34)C2)c1` [Compound I-82, 6-benzyl-3-(3-cyanobenzyl)-2,3,4,6-tetrahydropyrido[3,4-c][1,8]naphthyridine-5-(1H)-one] yielded a concentration for half-maximal inhibition (IC50) in the experiment with MV4; 11 cells of less than 1000 nM. This compound also yielded an EC50 at hClpP of less than 1000 nM.
In the case of `Cc1cc(Cn2c(=O)c3c(c4cccnc42)CCN(Cc2ccccc2)C3)n(C)n1` [Compound I-60, 3-benzyl-6-((1,3-dimethyl-1H-pyrazol-5-yl)methyl)-2,3,4,6-tetrahydropyrido[3,4-c][1,8]naphthyridine-5-(1H)-one], in the experiment on MV4; 11 cells, the IC50 lay in the range of 1000 to 10000 nM. This compound also came in with an EC50 at hClpP of 10000 to 100000 nM.
The compound `O=c1c2c(c3cccnc3n1Cc1ccccc1)CCN(Cc1ccc(Br)cc1)C2` [Compound I-20, 6-benzyl-3-(4-bromobenzyl)-2,3,4,6-tetrahydropyrido[3,4-c][1,8]naphthyridine-5-(1H)-one] registered a half-maximal inhibitory concentration (IC50) with MV4; 11 cells of less than 1000 nM. The same compound yielded a concentration for a half-maximal effect (EC50) on hClpP of 1000 to 10000 nM.
Take `Cc1cccc(CN2CCc3c(c(=O)n(Cc4ccc(C(F)(F)F)cc4)c4nccn34)C2)c1` [Compound I-130, 7-(3-methylbenzyl)-4-(4-trifluoromethylbenzyl)-6,7,8,9-tetrahydroimidazo[1,2-a]pyrido[3,4-e]pyrimidine-5(4H)-one]: the IC50 in the experiment with MV4; 11 cells was less than 1000 nM. Moreover, the EC50 on hClpP was less than 1000 nM.
The compound `O=c1c2c(n3ccnc3n1Cc1ccc(C(F)(F)F)cc1)CCN(Cc1cccc(Cl)c1)C2` [Compound I-129, 7-(3-chlorobenzyl)-4-(4-trifluoromethylbenzyl)-6,7,8,9-tetrahydroimidazo[1,2-a]pyrido[3,4-e]pyrimidine-5(4H)-one] showed an IC50 in the experiment with MV4; 11 cells of less than 1000 nM.
